Key:
Assay in all cases: KINOMEscan
Format in all cases: binding
Conditions in all cases: 2000 nM
[1] = molecular target: ABL1(H396P)-phosphorylated (Homo sapiens, UniProt P00519, H396P)
[2] = molecular target: ABL1(Y253F)-phosphorylated (Homo sapiens, UniProt P00519, Y253F)
[3] = molecular target: T1, ACVR2A (Homo sapiens, UniProt P27037)
T1 construct: purchased DiscoveRx (KINOMEscan scanMAX panel, service)

[4] = molecular target: T2, ARK5 (Homo sapiens, UniProt O60285)
T2 construct: DNA label (qPCR read-out); purchased KINOMEscan scanMAX panel (DiscoveRx)

[5] = molecular target: T3, AURKB (Homo sapiens, UniProt Q96GD4)
T3 construct: DNA label (qPCR read-out); purchased KINOMEscan scanMAX panel (DiscoveRx)

[6] = molecular target: T4, BMPR2 (Homo sapiens, UniProt Q13873)
T4 construct: DNA label (for qPCR read-out); purchased KINOMEscan scanMAX panel (DiscoveRx)

[7] = molecular target: T5, CASK (Homo sapiens, UniProt O14936)
T5 construct: DNA label (qPCR read-out); purchased KINOMEscan (ScanMAX panel service)

[8] = molecular target: T6, CLK3 (Homo sapiens, UniProt P49761)
T6 construct: DNA label (for qPCR read-out); purchased DiscoveRx (KINOMEscan scanMAX service)

[9] = molecular target: T7, DMPK (Homo sapiens, UniProt Q09013)
T7 construct: DNA label (qPCR read-out); purchased KINOMEscan (DiscoveRx) panel

[10] = molecular target: T8, DRAK1 (Homo sapiens, UniProt Q9UEE5)
T8 construct: DNA label (qPCR read-out); purchased KINOMEscan (DiscoveRx) panel

[11] = molecular target: T9, DYRK1A (Homo sapiens, UniProt Q13627)
T9 construct: DNA label (qPCR read-out); purchased KINOMEscan (DiscoveRx) panel

[12] = molecular target: T10, EGFR(E746-A750del) (Homo sapiens, UniProt P00533, DEL746-750)
T10 construct: purchased DiscoveRx (KINOMEscan scanMAX panel)

[13] = molecular target: T11, EGFR(L747-E749del, A750P) (Homo sapiens, UniProt P00533, A750P/DEL747-749)
T11 construct: purchased DiscoveRx (KINOMEscan scanMAX panel)

[14] = molecular target: T12, ERK1 (Homo sapiens, UniProt P27361)
T12 construct: DNA label (qPCR read-out); purchased DiscoveRx (KINOMEscan ScanMAX panel)

[15] = molecular target: T13, ERK3 (Homo sapiens, UniProt Q16659)
T13 construct: DNA label (qPCR read-out); purchased DiscoveRx (KINOMEscan ScanMAX panel)

[16] = molecular target: T14, FLT3(D835H) (Homo sapiens, UniProt P36888, D835H)
T14 construct: purchased DiscoveRx (KINOMEscan scanMAX panel)

[17] = molecular target: T15, GSK3B (Homo sapiens, UniProt P49841)
T15 construct: DNA label (for qPCR read-out); purchased DiscoveRx (KINOMEscan scanMAX panel, contract assay)

[18] = molecular target: T16, IKK-beta (Homo sapiens, UniProt O14920)
T16 construct: DNA label (qPCR read-out); purchased KINOMEscan (DiscoveRx) ScanMAX panel

[19] = molecular target: T17, JAK1(JH1domain-catalytic) (Homo sapiens, UniProt P23458)
T17 construct: JAK1(JH1domain-catalytic); DNA label (qPCR read-out); purchased KINOMEscan (DiscoveRx) ScanMAX panel

[20] = molecular target: T18, MAP3K1 (Homo sapiens, UniProt Q13233)
T18 construct: DNA label (qPCR read-out); purchased DiscoverX (KINOMEscan service)

[21] = molecular target: MAP3K2 (Homo sapiens, UniProt Q9Y2U5)
[22] = molecular target: T19, MEK2 (Homo sapiens, UniProt P36507)
T19 construct: purchased DiscoveRx (KINOMEscan scanMAX panel, service)

[23] = molecular target: T20, MRCKA (Homo sapiens, UniProt Q5VT25)
T20 construct: DNA label (qPCR read-out); purchased KINOMEscan scanMAX panel (DiscoveRx)

[24] = molecular target: T21, MST3 (Homo sapiens, UniProt Q9Y6E0)
T21 construct: DNA label (for qPCR read-out); purchased KINOMEscan scanMAX panel (DiscoveRx)

[25] = molecular target: T22, NEK5 (Homo sapiens, UniProt Q6P3R8)
T22 construct: DNA label (qPCR read-out); purchased KINOMEscan (ScanMAX panel service)

[26] = molecular target: T23, NIM1 (Homo sapiens, UniProt Q8IY84)
T23 construct: DNA label (qPCR read-out); purchased KINOMEscan (ScanMAX panel service)

[27] = molecular target: T24, p38-delta (Homo sapiens, UniProt O15264)
T24 construct: purchased DiscoverX (KINOMEscan service)

[28] = molecular target: T25, PFTAIRE2 (Homo sapiens, UniProt Q96Q40)
T25 construct: DNA label (for qPCR read-out); purchased DiscoveRx (KINOMEscan scanMAX service)

[29] = molecular target: T26, PIK3CA(C420R) (Homo sapiens, UniProt P42336, C420R)
T26 construct: DNA label; purchased DiscoveRx (KINOMEscan scanMAX panel)

[30] = molecular target: T27, PKN1 (Homo sapiens, UniProt Q16512)
T27 construct: DNA label (qPCR read-out); purchased KINOMEscan (DiscoveRx) panel

[31] = molecular target: T28, QSK (Homo sapiens, UniProt Q9Y2K2)
T28 construct: purchased DiscoveRx (KINOMEscan scanMAX panel)

[32] = molecular target: T29, RIOK3 (Homo sapiens, UniProt O14730)
T29 construct: DNA label (qPCR read-out); purchased DiscoveRx (KINOMEscan ScanMAX panel)

[33] = molecular target: T30, RPS6KA5(Kin.Dom.2-C-terminal) (Homo sapiens, UniProt O75582)
T30 construct: RPS6KA5(Kin.Dom.2); purchased DiscoveRx (KINOMEscan scanMAX panel)

[34] = molecular target: T31, TAK1 (Homo sapiens, UniProt O43318)
T31 construct: DNA label (for qPCR read-out); purchased DiscoveRx (KINOMEscan scanMAX panel, contract assay)
T31 sequence (O43318 whole entry): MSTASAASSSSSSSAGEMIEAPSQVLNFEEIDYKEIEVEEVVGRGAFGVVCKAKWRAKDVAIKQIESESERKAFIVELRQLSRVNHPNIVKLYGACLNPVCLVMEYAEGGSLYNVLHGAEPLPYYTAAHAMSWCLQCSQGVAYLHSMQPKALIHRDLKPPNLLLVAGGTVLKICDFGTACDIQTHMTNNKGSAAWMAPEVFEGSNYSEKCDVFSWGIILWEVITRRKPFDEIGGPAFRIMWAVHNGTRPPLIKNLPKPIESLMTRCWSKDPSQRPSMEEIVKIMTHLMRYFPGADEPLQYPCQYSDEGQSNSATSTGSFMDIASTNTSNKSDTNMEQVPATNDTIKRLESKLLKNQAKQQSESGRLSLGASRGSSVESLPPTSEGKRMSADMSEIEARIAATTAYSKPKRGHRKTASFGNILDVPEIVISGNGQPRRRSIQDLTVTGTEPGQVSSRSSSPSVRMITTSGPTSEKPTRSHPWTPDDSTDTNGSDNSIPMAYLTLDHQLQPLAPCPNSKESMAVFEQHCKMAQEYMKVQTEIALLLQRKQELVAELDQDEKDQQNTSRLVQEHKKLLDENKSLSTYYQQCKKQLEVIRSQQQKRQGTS

T18 sequence (Q13233 whole entry): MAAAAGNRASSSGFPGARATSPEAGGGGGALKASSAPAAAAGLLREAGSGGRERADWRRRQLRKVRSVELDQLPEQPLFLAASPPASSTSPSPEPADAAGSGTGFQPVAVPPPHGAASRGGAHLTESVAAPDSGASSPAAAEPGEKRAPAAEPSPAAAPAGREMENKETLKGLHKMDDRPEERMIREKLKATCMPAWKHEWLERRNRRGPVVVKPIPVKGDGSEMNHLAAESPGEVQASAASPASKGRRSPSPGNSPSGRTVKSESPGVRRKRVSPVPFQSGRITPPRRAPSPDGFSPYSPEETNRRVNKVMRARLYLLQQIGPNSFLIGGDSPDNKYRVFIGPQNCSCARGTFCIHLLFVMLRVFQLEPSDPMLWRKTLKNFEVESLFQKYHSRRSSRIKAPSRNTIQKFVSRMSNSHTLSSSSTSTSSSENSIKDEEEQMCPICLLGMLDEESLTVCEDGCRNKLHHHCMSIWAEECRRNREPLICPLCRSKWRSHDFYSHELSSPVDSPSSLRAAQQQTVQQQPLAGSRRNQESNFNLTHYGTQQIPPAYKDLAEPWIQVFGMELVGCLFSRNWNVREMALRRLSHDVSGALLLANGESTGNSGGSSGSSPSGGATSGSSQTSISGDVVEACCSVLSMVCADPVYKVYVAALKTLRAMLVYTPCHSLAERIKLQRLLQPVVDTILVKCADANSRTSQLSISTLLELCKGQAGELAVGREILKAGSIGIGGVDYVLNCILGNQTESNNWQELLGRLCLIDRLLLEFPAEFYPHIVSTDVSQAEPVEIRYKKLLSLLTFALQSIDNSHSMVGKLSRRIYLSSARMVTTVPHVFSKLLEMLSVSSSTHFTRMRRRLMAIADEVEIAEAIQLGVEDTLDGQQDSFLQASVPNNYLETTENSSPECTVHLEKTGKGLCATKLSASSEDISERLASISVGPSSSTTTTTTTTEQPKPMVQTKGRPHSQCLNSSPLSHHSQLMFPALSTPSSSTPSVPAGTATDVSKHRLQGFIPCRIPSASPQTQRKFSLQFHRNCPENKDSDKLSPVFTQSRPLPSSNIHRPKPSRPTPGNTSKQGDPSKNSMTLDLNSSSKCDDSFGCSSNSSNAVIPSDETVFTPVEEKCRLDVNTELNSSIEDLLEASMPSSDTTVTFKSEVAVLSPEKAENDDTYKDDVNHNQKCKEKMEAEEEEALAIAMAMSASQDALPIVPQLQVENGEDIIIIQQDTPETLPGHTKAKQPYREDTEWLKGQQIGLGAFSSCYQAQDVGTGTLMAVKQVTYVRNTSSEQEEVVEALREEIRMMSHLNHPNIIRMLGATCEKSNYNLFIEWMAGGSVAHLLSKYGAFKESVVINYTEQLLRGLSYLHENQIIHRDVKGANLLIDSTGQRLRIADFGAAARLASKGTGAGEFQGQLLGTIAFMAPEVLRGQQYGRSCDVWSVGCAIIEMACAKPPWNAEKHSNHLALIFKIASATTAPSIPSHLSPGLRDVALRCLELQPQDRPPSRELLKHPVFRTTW
T7 sequence (Q09013 whole entry): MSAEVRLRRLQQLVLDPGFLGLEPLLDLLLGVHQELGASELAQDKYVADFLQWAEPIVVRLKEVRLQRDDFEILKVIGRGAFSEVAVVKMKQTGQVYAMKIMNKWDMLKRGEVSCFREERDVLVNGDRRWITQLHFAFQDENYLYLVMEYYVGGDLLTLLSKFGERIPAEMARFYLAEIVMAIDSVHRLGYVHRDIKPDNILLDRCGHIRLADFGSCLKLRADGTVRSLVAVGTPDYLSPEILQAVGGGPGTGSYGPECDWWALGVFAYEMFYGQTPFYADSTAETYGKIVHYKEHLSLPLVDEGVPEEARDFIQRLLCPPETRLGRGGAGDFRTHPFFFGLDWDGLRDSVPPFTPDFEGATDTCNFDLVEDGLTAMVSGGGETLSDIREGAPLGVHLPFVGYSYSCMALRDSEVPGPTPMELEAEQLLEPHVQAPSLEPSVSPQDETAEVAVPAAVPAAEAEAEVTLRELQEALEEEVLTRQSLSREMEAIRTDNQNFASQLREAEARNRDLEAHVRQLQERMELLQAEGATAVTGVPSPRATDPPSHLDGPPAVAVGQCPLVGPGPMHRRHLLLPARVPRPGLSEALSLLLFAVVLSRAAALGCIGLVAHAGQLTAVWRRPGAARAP
T13 sequence (Q16659 whole entry): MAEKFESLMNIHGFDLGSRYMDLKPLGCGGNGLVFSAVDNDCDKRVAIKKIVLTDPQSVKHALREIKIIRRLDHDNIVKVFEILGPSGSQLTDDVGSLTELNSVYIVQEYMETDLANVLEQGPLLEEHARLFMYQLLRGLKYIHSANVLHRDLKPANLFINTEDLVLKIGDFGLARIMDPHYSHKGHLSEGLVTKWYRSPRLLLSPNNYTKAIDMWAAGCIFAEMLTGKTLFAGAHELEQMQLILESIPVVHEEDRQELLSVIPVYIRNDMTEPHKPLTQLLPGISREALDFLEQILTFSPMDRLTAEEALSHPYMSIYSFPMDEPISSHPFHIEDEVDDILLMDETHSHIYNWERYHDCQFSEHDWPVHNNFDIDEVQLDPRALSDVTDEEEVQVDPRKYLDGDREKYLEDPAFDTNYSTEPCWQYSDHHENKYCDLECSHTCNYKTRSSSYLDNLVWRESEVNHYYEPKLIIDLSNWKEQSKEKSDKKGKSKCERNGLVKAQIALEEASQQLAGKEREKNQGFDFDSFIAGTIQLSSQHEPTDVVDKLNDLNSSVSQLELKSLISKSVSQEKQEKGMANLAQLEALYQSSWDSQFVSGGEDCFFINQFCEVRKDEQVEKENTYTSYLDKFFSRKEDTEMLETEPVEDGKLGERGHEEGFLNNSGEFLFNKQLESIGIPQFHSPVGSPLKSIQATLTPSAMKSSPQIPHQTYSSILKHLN
T5 sequence (O14936 whole entry): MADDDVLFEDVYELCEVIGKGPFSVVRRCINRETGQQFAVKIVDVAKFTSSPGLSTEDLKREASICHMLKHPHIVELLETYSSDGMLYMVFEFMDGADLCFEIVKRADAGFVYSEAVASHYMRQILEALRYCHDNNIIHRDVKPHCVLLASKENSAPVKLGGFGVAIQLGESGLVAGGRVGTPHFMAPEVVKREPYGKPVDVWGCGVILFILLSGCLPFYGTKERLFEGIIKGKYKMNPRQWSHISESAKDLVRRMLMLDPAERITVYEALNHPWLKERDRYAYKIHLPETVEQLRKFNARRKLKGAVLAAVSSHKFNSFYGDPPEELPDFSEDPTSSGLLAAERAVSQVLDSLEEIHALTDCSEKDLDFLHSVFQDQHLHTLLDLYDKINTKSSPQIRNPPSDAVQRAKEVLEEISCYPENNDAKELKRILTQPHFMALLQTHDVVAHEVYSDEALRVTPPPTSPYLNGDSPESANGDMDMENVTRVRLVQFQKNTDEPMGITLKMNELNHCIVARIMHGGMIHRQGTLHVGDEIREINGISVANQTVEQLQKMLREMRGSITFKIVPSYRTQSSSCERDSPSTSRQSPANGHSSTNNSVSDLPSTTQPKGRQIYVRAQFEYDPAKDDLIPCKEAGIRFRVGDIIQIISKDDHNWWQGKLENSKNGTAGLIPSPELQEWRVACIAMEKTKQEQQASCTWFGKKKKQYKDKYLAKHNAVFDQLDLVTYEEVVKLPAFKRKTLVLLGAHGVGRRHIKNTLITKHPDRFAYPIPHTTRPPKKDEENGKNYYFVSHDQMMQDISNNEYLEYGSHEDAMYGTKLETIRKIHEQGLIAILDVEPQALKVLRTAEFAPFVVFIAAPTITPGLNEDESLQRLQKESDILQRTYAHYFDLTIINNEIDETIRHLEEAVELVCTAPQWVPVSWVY
T23 sequence (Q8IY84 whole entry): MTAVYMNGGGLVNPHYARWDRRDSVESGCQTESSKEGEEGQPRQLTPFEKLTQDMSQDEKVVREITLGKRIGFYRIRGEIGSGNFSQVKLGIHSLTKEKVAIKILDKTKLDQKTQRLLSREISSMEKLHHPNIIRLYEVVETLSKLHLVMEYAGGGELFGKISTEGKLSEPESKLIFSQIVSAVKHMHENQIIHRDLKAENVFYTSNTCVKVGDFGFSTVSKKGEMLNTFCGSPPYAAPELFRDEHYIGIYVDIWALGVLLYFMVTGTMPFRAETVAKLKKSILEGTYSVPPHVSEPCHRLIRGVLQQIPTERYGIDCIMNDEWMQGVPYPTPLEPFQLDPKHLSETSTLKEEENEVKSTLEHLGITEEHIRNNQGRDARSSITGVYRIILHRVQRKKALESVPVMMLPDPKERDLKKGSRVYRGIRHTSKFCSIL

CN(C)C(=O)c1ccc(N2CCCN(c3ccnc4sc(C(N)=O)c(N)c34)CC2)cc1 [15u, 3-amino-4-(4-(4-(dimethylcarbamoyl)phenyl)-1,4-diazepan-1-yl)thieno[2,3-b]pyridine-2-carboxamide]
% Ctrl [1]: 94 % Ctrl
% Ctrl [2]: 100 % Ctrl
% Ctrl [3]: 95 % Ctrl
% Ctrl [4]: 57 % Ctrl
% Ctrl [5]: 91 % Ctrl
% Ctrl [6]: 79 % Ctrl
% Ctrl [7]: 71 % Ctrl
% Ctrl [8]: 100 % Ctrl
% Ctrl [9]: 97 % Ctrl
% Ctrl [10]: 100 % Ctrl
% Ctrl [11]: 50 % Ctrl
% Ctrl [12]: 100 % Ctrl
% Ctrl [13]: 99 % Ctrl
% Ctrl [14]: 100 % Ctrl
% Ctrl [15]: 88 % Ctrl
% Ctrl [16]: 63 % Ctrl
% Ctrl [17]: 79 % Ctrl
% Ctrl [18]: 89 % Ctrl
% Ctrl [19]: 57 % Ctrl
% Ctrl [20]: 84 % Ctrl
% Ctrl [21]: 98 % Ctrl
% Ctrl [22]: 88 % Ctrl
% Ctrl [23]: 94 % Ctrl
% Ctrl [24]: 97 % Ctrl
% Ctrl [25]: 94 % Ctrl
% Ctrl [26]: 56 % Ctrl
% Ctrl [27]: 96 % Ctrl
% Ctrl [28]: 100 % Ctrl
% Ctrl [29]: 100 % Ctrl
% Ctrl [30]: 96 % Ctrl
% Ctrl [31]: 89 % Ctrl
% Ctrl [32]: 100 % Ctrl
% Ctrl [33]: 95 % Ctrl
% Ctrl [34]: 93 % Ctrl

[2H]C([2H])([2H])N(C(=O)c1ccc(N2CCCN(c3ccnc4sc(C(N)=O)c(N)c34)CC2)cc1)C([2H])([2H])[2H] [15u_D6, 3-amino-4-(4-(4-(bis(methyl-d3)carbamoyl)phenyl)-1,4-diazepan-1-yl)thieno[2,3-b]pyridine-2-carboxamide]
% Ctrl [1]: 77 % Ctrl
% Ctrl [2]: 81 % Ctrl
% Ctrl [3]: 92 % Ctrl
% Ctrl [4]: 77 % Ctrl
% Ctrl [5]: 90 % Ctrl
% Ctrl [6]: 88 % Ctrl
% Ctrl [7]: 96 % Ctrl
% Ctrl [8]: 95 % Ctrl
% Ctrl [9]: 97 % Ctrl
% Ctrl [10]: 100 % Ctrl
% Ctrl [11]: 22 % Ctrl
% Ctrl [12]: 100 % Ctrl
% Ctrl [13]: 100 % Ctrl
% Ctrl [14]: 97 % Ctrl
% Ctrl [15]: 94 % Ctrl
% Ctrl [16]: 76 % Ctrl
% Ctrl [17]: 77 % Ctrl
% Ctrl [18]: 71 % Ctrl
% Ctrl [19]: 82 % Ctrl
% Ctrl [20]: 90 % Ctrl
% Ctrl [21]: 86 % Ctrl
% Ctrl [22]: 82 % Ctrl
% Ctrl [23]: 100 % Ctrl
% Ctrl [24]: 84 % Ctrl
% Ctrl [25]: 100 % Ctrl
% Ctrl [26]: 78 % Ctrl
% Ctrl [27]: 97 % Ctrl
% Ctrl [28]: 80 % Ctrl
% Ctrl [29]: 86 % Ctrl
% Ctrl [30]: 100 % Ctrl
% Ctrl [31]: 97 % Ctrl
% Ctrl [32]: 95 % Ctrl
% Ctrl [33]: 100 % Ctrl
% Ctrl [34]: 62 % Ctrl

Reference: patent publication US11572369B2, “Bicyclic pyridine compositions and methods of using the same for cancer therapy” (UNIVERSITY OF SOUTH CAROLINA, priority 2019, dated 2023)
